Assay results from patent publication US20040023211A1, “System and method for optimizing drug theraphy for the treatment of diseases” (priority 2000, published 2004).
Where two headings read alike, the source gives them in different places.

Key:
HIV = conditions: cited from earlier work; for % of patients with viral load below 400 copies/mL at week 24: lopinavir plus efavirenz and 2 NRTIs, 56 patients
[1] = Amprenavir trough plasma concentration (Cmin, 12 hours after dosing) by LC-MS/MS in treatment-experienced patients; format: in vivo, adults infected with HIV-1; conditions: amprenavir 1200 mg bid with abacavir, efavirenz and ritonavir or nelfinavir, 17 patients
Protocol: Patients were enrolled into three parallel treatment groups that included abacavir 300 mg bid, amprenavir 1200 mg bid, and efavirenz 600 mg daily with either low dose ritonavir at 200 mg BID, high dose ritonavir at 500 mg bid, or nelfinavir 1250 mg bid.
Genotyping (VircoGEN II™, VIRCO) and VIRTUAL PHENOTYPE™ were performed on baseline samples. Viral load data were collected at baseline (mean of two pre-therapy samples) and at week 24. Serial pharmacokinetic samples were collected over 12 hours after week 3 for ritonavir-boosted regimens and after week 2 for nelfinavir-boosted regimens.
Amprenavir concentrations in plasma were determined by a validated LC-MS/MS method.
For amprenavir, nelfinavir, and ritonavir, the concentration 12 hours after dosing was used as the Cmin. For each drug, relationships between viral load change at week 24 and the Cmin, fold-change in resistance, and NIQ were fit to a sigmoidal maximum effect model.

HIV-1 = format: in vivo, adults infected with HIV-1; conditions: change in viral load at week 24, sigmoidal Emax model, p<0.05
Protocol: The normalized inhibitory quotient (NIQ) was determined as: [formula]
Where the IQ in an individual patient (IQpatient) was calculated as ratio of the patient's trough concentration (Cmin) to the susceptibility of the patient's virus to the drug, expressed as fold change compared to wild type virus (Virtual Phenotype). The IQpt was then related to the reference inhibitory quotient (IQref), in which the mean population trough concentration of the drug from the product label was divided by the cut-off value of the fold change for susceptible viruses.
For amprenavir, nelfinavir, and ritonavir, the concentration 12 hours after dosing was used as the Cmin. […]

| Structure (SMILES) | % of patients with viral load below 400 copies/mL at week 24 (HIV; lopinavir IQ 4-15) [%] | % of patients with viral load below 400 copies/mL at week 24 (HIV; lopinavir IQ <4) [%] | % of patients with viral load below 400 copies/mL at week 24 (HIV; lopinavir IQ >15) [%] | correlation of trough concentration alone with virologic outcome (HIV; lopinavir trough concentration alone, week 24) | Cmin, range [1] | correlation of NIQ with outcome at 24 weeks (HIV-1) |
| --- | --- | --- | --- | --- | --- | --- |
| Cc1cccc(C)c1OCC(=O)N[C@@H](Cc1ccccc1)[C@@H](O)C[C@H](Cc1ccccc1)NC(=O)[C@H](C(C)C)N1CCCNC1=O [lopinavir] | 80 | 70 | 100 | no correlation with virologic outcome was found |  |  |
| CC(C)CN(C[C@@H](O)[C@H](Cc1ccccc1)NC(=O)O[C@H]1CCOC1)S(=O)(=O)c1ccc(N)cc1 [Amprenavir, amprenavir] |  |  |  |  | (264-3453) ng/ml | correlated with outcome at 24 weeks |
